Measured values: US10145848B2, “Small-molecule hydrophobic tagging of fusion proteins and induced degradation of same” (YALE UNIVERSITY, priority 2010, dated 2018)
“Also recorded” adds a separate entry of the source.

What was measured:
[1] = target: T1, EGFP-HaloTag (Rhodococcus rhodochrous, UniProt P0A3G2, C176G/H272F/K175M/Y273L); assay: Flow cytometry of intracellular GFP fluorescence in HeLa cells expressing EGFP-HaloTag; type: cell-based; settings: 1 μM, 24 hours
T1 construct: The HaloTag protein was obtained from pHT2 vector (Promega); expressed in transfected cells
Experimental: Stable HeLa cells were raised by cotransfection of pCS2/EGFP-HaloTag and p-Puro containing the puromycin resistance gene. A clonal population of cells expressing EGFP-HaloTag was isolated. These cells were treated with vehicle or 1 μM HyT13 for 24 hours, washed with PBS and trypsinized. The cells were resuspended in FBS-free DMEM and the intracellular GFP level was measured by FACSCalibur (BD Biosciences).
As the luciferase assay relied on the loss-of-activity of the luciferase-HaloTag fusion protein, we wanted to determine whether the decrease in luciferase activity resulted from the degradation of the entire fusion protein or perhaps simply inhibition of luciferase activity. We generated a stable Flp-In 293 cell line with a single integration site containing HA-EGFP-HaloTag fusion protein, and employed this cell line to perform kinetic studies with HyT13. […] Consistent with our previous observations, treatment of these cells with 1 μM of HyT13 for 24 hours reduced the mean fluorescence intensity of cells almost 7-fold. Together, these findings provide the first experimental evidence that hydrophobic tagging represents a viable strategy for the control of protein levels.

[2] = tested on: HEK293 or HeLa cells; assay: Cell viability with Resazurin (alamarBlue); type: cell-based; settings: up to 20 μM, 24 hours
Experimental: HEK293 or HeLa cells were treated with indicated concentrations of HyT13 for 24 hours. The oxidation-reduction indicator Resazurin (alamarBlue, Invitrogen) was employed to determine cell viability.

[3] = tested on: transmembrane HA-HaloTag fusion proteins (Ror2, CD3E, CD9, GPR40, Frizzled-4); assay: Immunoblotting of transmembrane HA-HaloTag fusion proteins in HEK 293T cells; type: cell-based; settings: 1 μM, 24 hours
[4] = target: T2, HA-HaloTag-H-RasG12V (Rhodococcus rhodochrous, UniProt P0A3G2, C176G/H272F/K175M/Y273L); assay: Immunoblotting of HA-HaloTag-H-RasG12V in NIH-3T3 cells; type: cell-based; settings: 1 μM, 24 hours
T2 construct: The HaloTag protein was obtained from pHT2 vector (Promega); H-Ras carrying G12V (fusion partner, same polypeptide); expressed in transfected cells; host or cells: NIH-3T3, retroviral infection (pEYK3.1)
Experimental: (§1) (a) NIH-3T3 cells were retrovirally infected with a construct expressing either HA-HaloTag-HRas(G12V) or HA-HaloTag(D106A)-HRas(G12V). The cells were then treated with vehicle or 1 μM HyT13 for 24 hours. The lysates were prepared for immunoblotting and the blots were probed with anti-HA and anti-β-actin antibodies. (b) One hundred thousand NIH-3T3 cells infected with HA-HaloTag-HRas(G12V) or HA-HaloTag(D106A)-HRas(G12V) were plated in 10% FBS containing medium onto 10-cm plates. The next day, the medium was replaced with 1% FBS containing medium, along with vehicle or 1 μM HyT13. The media was refreshed every 2 days, and the plates were pictured on day 6. Bar, 5 mm. (c) Quantification of foci as described in (b). The number of foci/cm^2 was counted from three separate plates, with error bars representing SEM. […] Tumor size was measured daily, and the tumor volume was calculated. […]
(§2) The indicated cells were washed twice with cold PBS and the cells were lysed in lysis buffer (1×PBS, 1% NP-40, 1 mM EDTA, 40 mM HEPES) with protease inhibitors. […] The total protein concentration was determined by Bradford assay and 50 μg of protein was loaded onto an 8% Bis-Tris gel. […] The blots were processed by standard procedures with indicated antibodies, and the band intensities were quantified by ImageJ. […]

[5] = target: T3, HA-HaloTag(D106A)-H-RasG12V (UniProt P01112+P0A3G2, C176G/D106A/G12V/H272F/K175M/Y273L); assay: Immunoblotting of HA-HaloTag(D106A)-H-RasG12V in NIH-3T3 cells; type: cell-based; settings: 1 μM, 24 hours
T3 construct: The HaloTag protein was obtained from pHT2 vector (Promega); H-Ras carrying G12V (fusion partner, same polypeptide); expressed in transfected cells; host or cells: NIH-3T3, retroviral infection (pEYK3.1)
Experimental: as §1, §2

[6] = tested on: NIH-3T3 cells infected with HA-HaloTag-H-RasG12V; assay: Focus formation assay, HA-HaloTag-H-RasG12V cells; type: cell-based, mouse; settings: 1 μM, 1% FBS, day 6
Experimental: One hundred thousand NIH-3T3 cells infected with HA-HaloTag-H-RasG12V and HA-HaloTag(D106A)-H-RasG12V were plated onto 10-cm cell culture plates in 10% FBS with DMEM. The next day, the media was replaced with 1% FBS media and the cells were administered either vehicle or 1 μM HyT13. The media and the drug were replaced every two days. On day 6, the foci were photographed and counted as the number of distinct foci per 1-cm^2 area.
We next explored the functional utility of HaloTag-based degradation of an oncogene by HyT13 both in cell culture and in mice. The small GTPase H-Ras is one of the most commonly mutated genes in cancer, with up to […] of cancers harboring activating mutations in this gene^35. Activating mutations, such as the H-RasG12V allele, lead to decreased dependence on extracellular mitogenic signals. […] When H-RasG12V expressing cells are grown in culture under low serum conditions they lose cell-to-cell contact inhibition and form distinct foci instead of growing as a cellular monolayer. Furthermore, these transformed cells are capable of tumor formation when injected into immuno-compromised nude mice^36,37. We investigated whether (1) HaloTag-H-RasG12V driven focus formation can be suppressed in NIH-3T3 cells and (2) HaloTag-H-RasG12V driven tumor burden in mice can be reduced by administration of HyT13. […]

O=C(CC12CC3CC(CC(C3)C1)C2)NCCOCCOCCCCCCCl [HyT13, 2-((3r,5r,7r)-Adamantan-1-yl)-N-(2-(2-((6-chlorohexyl)oxy)ethoxy)ethyl)acetamide]
reduction of mean fluorescence intensity [1]: ~7 fold | cellular toxicity [2]: No cellular toxicity was observed; also recorded: lack of noticeable HyT13 cytotoxicity; also recorded: exhibits no toxicity | degradation of transmembrane HaloTag fusion proteins [3]: efficiently induced their degradation | degradation of HA-HaloTag-H-RasG12V [4]: readily degraded | degradation of HA-HaloTag(D106A)-H-RasG12V [5]: unaffected | focus formation [6]: had grown a normal monolayer of cells
